Measured values published in patent US20120053170A1, “NICOTINAMIDE DERIVATIVES, PREPARATION THEREOF, AND THERAPEUTIC USE THEREOF AS ANTICANCER DRUGS” (SANOFI, priority 2009, published 2012).

System: HCT116 tumour line (ATCC-CCL247)
Assay: MTS cell proliferation and viability test on the HCT116 tumour line
Format: cell-based
Details: Homo sapiens, HCT-116, incubating the test compound for 72 hours, read-out: IC50 (concentration of compound which results in a 50% loss of cell proliferation and viability)
Protocol: They were tested in vitro on the HCT116 tumour line (ATCC-CCL247). […] In this test, the mitochondrial ability of the living cells to convert MTS to a coloured compound is measured after incubating the test compound for 72 hours.

Structure (SMILES) | IC50
Nc1ccc(CNC(=O)Nc2ccc(-c3ccc(C(=O)NCCN4CCCCC4)c(Nc4ccccc4)n3)cc2F)cn1 [Compound No. 5, 6-{4-[3-(6-Aminopyridin-3-ylmethyl)ureido]-3-fluorophenyl}-2-phenylamino-N-[2-(piperidin-1-yl)ethyl]nicotinamide] | < 1 nM
CCNc1nc(-c2ccc(NC(=O)NCc3ccc(N)nc3)cc2F)ccc1C(=O)NCCN1CCCCC1 [Compound No. 11, 6-{4-[3-(6-Aminopyridin-3-ylmethyl)ureido]-2-fluorophenyl}-2-ethylamino-N-[2-(piperidin-1-yl)ethyl]nicotinamide] | < 1 nM
CCNc1nc(-c2ccc(NC(=O)NCc3ccc(N)nc3)c(F)c2)ccc1C(=O)NCCN1[C@H](C)CCC[C@@H]1C [Compound No. 19, 6-{4-[3-(6-Aminopyridin-3-ylmethyl)ureido]-3-fluorophenyl]-N-[2-(cis-2,6-dimethylpiperidin-1-yl)ethyl]-2-(ethylamino)nicotinamide] | < 1 nM
CCNc1nc(-c2ccc(NC(=O)NCc3cccnc3)c(F)c2)ccc1C(=O)NCCN1CCCCC1 [Compound No. 27, 2-Ethylamino-6-{3-fluoro-4-[3-(pyridin-3-ylmethyl)ureido]phenyl}-N-[2-(piperidin-1-yl)ethyl]nicotinamide] | < 1 nM
